Molecules are shown by their SMILES. Structures can show the parent of a compound that is named as a salt.

Assay [1] concerns the target T1, horseradish peroxidase (HRP) tagged delF508-CFTR (Homo sapiens, UniProt P13569, DEL508-508).
T1 construct: expressed in transfected cells
In words: Measurement of delF508-CFTR-HRP surface expression in CFBE41o- cells.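 On DelF508-CFTR-HRP Amax %: percent efficacy relative to reference corrector lumacaftor.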 To be noted: delF508-CFTR-HRP surface expression, CFBE41o- cells; for Emax: read-out: DelF508-CFTR-HRP Amax %; for EC50: read-out: DelF508-CFTR-HRP EC50. The assay is classed as cell-based. The gist of the method:
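CFBE41o- bronchial epithelial cells stably expressing delF508-CFTR with HRP in the fourth extracellular loop; expression induced 48h with 500 ng/mL doxycycline, then compounds added (top 10 μM, 10-point 3-fold series, ≤0.5% DMSO) for 24h at 37° C. Surface HRP measured by luminescence with cell-impermeant substrate; EC50 from logistic fit of triplicates, plate-normalized to lowest concentration; efficacy also relative to a reference corrector.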

Another assay deals with T2, delF508-CFTR (Homo sapiens, UniProt P13569, DEL508-508).
T2 construct: functional activity of the CFTR channel (Chloride ion transport) in patient derived primary human bronchial epithelial cells; host or cells: patient-derived primary human bronchial epithelial cells (delF508-CFTR)
T2 sequence (P13569 with tags, fused parts or gaps DEL508-508): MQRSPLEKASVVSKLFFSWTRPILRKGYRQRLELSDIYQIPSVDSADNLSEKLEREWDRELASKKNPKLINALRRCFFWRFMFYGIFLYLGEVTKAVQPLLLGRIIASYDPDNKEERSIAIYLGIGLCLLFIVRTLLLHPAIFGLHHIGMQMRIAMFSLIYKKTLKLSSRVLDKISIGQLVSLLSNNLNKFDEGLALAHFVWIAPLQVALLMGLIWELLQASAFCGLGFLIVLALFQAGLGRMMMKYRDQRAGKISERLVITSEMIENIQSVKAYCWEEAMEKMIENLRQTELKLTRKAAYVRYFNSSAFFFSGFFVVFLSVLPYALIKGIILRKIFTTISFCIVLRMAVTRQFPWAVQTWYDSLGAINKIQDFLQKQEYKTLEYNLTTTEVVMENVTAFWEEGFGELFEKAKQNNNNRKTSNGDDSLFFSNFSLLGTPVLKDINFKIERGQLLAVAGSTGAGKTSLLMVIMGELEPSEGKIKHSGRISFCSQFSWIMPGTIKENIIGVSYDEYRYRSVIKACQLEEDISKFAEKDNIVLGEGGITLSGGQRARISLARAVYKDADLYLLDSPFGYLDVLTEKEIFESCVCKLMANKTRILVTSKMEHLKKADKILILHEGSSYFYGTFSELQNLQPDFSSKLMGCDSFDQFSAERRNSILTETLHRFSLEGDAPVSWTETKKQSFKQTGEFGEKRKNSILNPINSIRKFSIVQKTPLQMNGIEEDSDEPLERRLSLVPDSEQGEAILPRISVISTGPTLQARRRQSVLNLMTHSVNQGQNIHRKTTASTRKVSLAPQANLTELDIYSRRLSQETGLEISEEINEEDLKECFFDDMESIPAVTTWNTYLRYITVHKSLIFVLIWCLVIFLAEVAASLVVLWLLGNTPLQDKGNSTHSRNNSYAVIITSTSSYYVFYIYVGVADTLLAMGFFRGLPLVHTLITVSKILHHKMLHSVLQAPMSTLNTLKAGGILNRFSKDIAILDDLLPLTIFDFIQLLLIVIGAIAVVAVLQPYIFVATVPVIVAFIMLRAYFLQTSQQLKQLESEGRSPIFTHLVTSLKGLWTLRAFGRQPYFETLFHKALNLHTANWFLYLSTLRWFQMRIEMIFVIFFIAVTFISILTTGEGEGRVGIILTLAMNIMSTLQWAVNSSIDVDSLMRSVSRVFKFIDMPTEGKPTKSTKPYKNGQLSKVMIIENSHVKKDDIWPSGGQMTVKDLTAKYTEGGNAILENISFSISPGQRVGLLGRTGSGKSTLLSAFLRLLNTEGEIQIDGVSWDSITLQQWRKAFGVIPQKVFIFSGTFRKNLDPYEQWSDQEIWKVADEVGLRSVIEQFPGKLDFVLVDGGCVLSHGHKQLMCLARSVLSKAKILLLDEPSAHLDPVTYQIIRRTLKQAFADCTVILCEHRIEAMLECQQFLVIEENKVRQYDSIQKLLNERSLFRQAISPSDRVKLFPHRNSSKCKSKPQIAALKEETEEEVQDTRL
In words: Measurement of delF508-CFTR functional activity in primary human bronchial epithelial cells (HBECs) using Multi-Transepithelial Clamp Circuit (MTECC-24) assay. The assay is classed as cell-based. To be noted: primary CF HBECs; for MTECC24 CFHBEC- Amax %: test compound added 24h before assay plus potentiator, relative to reference combination (2 μM corrector + 0.5 μM potentiator); for EC50: test compound added 24h before assay, in the presence of potentiator, mean of at least two replicates, read-out: MTECC24 CFHBEC- EC50. The gist of the method: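 Patient-derived primary delF508-CFTR HBECs, differentiated at air-liquid interface ~2 weeks, treated basolaterally with compound for 24 h, then apical and basolateral compound in HEPES pH 7.4 assay medium. Equivalent short-circuit current (Ieq) recorded on MTECC-24 with sequential amiloride, forskolin, potentiator and INH-172; normalized to 0.1% DMSO, EC50 from curve fit.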

T1 sequence (P13569 with tags, fused parts or gaps DEL508-508): as above

Turning to `Cc1ccccc1-c1nc(NS(=O)(=O)c2cccc(N3CCN(C(=O)OC(C)(C)C)[C@@H](CO)C3)n2)ccc1C(F)(F)F` [Example 164, tert-butyl (R)-2-(hydroxymethyl)-4-(6-(N-(6-(o-tolyl)-5-(trifluoromethyl)pyridin-2-yl)sulfamoyl)pyridin-2-yl)piperazine-1-carboxylate], in assay [1], the Emax turned out to be 578% and the EC50 is 1060 nM. In addition, on delF508-CFTR, the “MTECC24 CFHBEC- Amax %” value was 74.3% and the EC50 turned out to be 49.5 nM.

For `CC(C)(C)OC(=O)N1CCN(c2cccc(S(=O)(=O)Nc3ccc(C(F)(F)F)c(-c4ccccc4C4CC4)n3)n2)CC1` [Example 147, tert-butyl 4-(6-(N-(6-(2-cyclopropylphenyl)-5-(trifluoromethyl)pyridin-2-yl)sulfamoyl)pyridin-2-yl)piperazine-1-carboxylate], in assay [1], the Emax amounted to 482% and the half-maximal effective concentration (EC50) came out at 375 nM. In addition, on delF508-CFTR, the “MTECC24 CFHBEC- Amax %” value amounted to 92.8% and the EC50 was 4.2 nM.

In the case of `Cc1cccc(C)c1-c1nc(NS(=O)(=O)c2cccc(N3CCC(C)(C(=O)O)CC3)n2)ccc1C(F)(F)F` [Example 265, 1-(6-{[6-(2,6-dimethylphenyl)-5-(trifluoromethyl)pyridin-2-yl]sulfamoyl}pyridin-2-yl)-4-methylpiperidine-4-carboxylic Acid], in assay [1], the Emax worked out at 879% and the EC50 is 1830 nM. In addition, at delF508-CFTR, the “MTECC24 CFHBEC- Amax %” value was found to be 53.1% and the EC50 is 13.4 nM.

On to `COc1ccc(F)cc1-c1nc(NS(=O)(=O)c2cccc(N3CCN(C(C)(C)C)CC3)n2)ccc1C(F)(F)F` [Example 149, 6-(4-(tert-butyl)piperazin-1-yl)-N-(6-(5-fluoro-2-methoxyphenyl)-5-(trifluoromethyl)pyridin-2-yl)pyridine-2-sulfonamide], for which, in assay [1], the Emax was found to be 289% and the EC50 was 1750 nM. Moreover, at delF508-CFTR, the “MTECC24 CFHBEC- Amax %” value was 76.0% and the EC50 was determined as 22.8 nM.

As to `Cc1ccccc1-c1nc(NS(=O)(=O)c2ccnc(N)c2)ccc1Cl` [Example 57, 2-amino-N-(5-chloro-6-(o-tolyl)pyridin-2-yl)pyridine-4-sulfonamide], in assay [1], the Emax was found to be 285% and the EC50 was 1080 nM. Further, at delF508-CFTR, the “MTECC24 CFHBEC- Amax %” value is on record as 72.9% and the EC50 was 118 nM.

On to `Nc1cccc(S(=O)(=O)Nc2ccc(Cl)c(-c3ccc(F)cc3Cl)n2)n1` [Example 56, 6-amino-N-(5-chloro-6-(2-chloro-4-fluorophenyl)pyridin-2-yl)pyridine-2-sulfonamide], for which, in assay [1], the Emax stood at 301% and the EC50 came to 2580 nM. At delF508-CFTR, the “MTECC24 CFHBEC- Amax %” value is on record as 63.9% and the EC50 amounted to 28.3 nM.

With `COc1ccc(Cl)c(-c2nc(NS(=O)(=O)c3cccc(N4CCNCC4)n3)ccc2C(F)(F)F)c1` [Example 154, N-(6-(2-chloro-5-methoxyphenyl)-5-(trifluoromethyl)pyridin-2-yl)-6-(piperazin-1-yl)pyridine-2-sulfonamide hydrochloride], in assay [1], the Emax was found to be 395% and the EC50 stood at 3460 nM. In addition, at delF508-CFTR, the “MTECC24 CFHBEC- Amax %” value was 69.5% and the 50% effective concentration (EC50) worked out at 239 nM.

Regarding `Cc1c(-c2nc(NS(=O)(=O)c3cccc(N)n3)ccc2Cl)cccc1C(F)(F)F` [Example 34, 6-amino-N-(5-chloro-6-(2-methyl-3-(trifluoromethyl)phenyl)pyridin-2-yl)pyridine-2-sulfonamide], in assay [1], the Emax amounted to 400% and the concentration giving a half-maximal response (EC50) worked out at 2520 nM. Moreover, at delF508-CFTR, the “MTECC24 CFHBEC- Amax %” value turned out to be 58.2% and the EC50 was 11.6 nM.

Turning to `Cc1ccc(F)cc1-c1nc(NS(=O)(=O)c2cccc(N3CCC(C)(C(=O)O)CC3)n2)ccc1Cl` [Example 257, 1-(6-{[5-chloro-6-(5-fluoro-2-methylphenyl)pyridin-2-yl]sulfamoyl}pyridin-2-yl)-4-methylpiperidine-4-carboxylic Acid], in assay [1], the Emax is 198% and the EC50 was 1350 nM. Further, at delF508-CFTR, the “MTECC24 CFHBEC- Amax %” value turned out to be 63.0% and the EC50 came to 21.8 nM.

In the case of `Cc1ccc(OC(F)(F)F)cc1-c1nc(NS(=O)(=O)c2cccc(N)n2)ccc1Cl` [Example 89, 6-amino-N-(5-chloro-6-(2-methyl-5-(trifluoromethoxy)phenyl)pyridin-2-yl)pyridine-2-sulfonamide], in assay [1], the Emax amounted to 91.5% and the half-maximal effective concentration (EC50) amounted to 3860 nM. At delF508-CFTR, the “MTECC24 CFHBEC- Amax %” value was found to be 35.7% and the EC50 turned out to be 39.9 nM.

Regarding `Cc1ccc(F)cc1-c1nc(NS(=O)(=O)c2cccc(N3CC4CCC3CN4)n2)ccc1C(F)(F)F` (centres unmarked) [Example 201, 6-(2,5-diazabicyclo[2.2.2]octan-2-yl)-N-(6-(5-fluoro-2-methylphenyl)-5-(trifluoromethyl)pyridin-2-yl)pyridine-2-sulfonamide Hydrochloride], in assay [1], the Emax stood at 570% and the concentration for a half-maximal effect (EC50) stood at 2620 nM. In addition, at delF508-CFTR, the “MTECC24 CFHBEC- Amax %” value was found to be 75.9% and the EC50 worked out at 135 nM.

For the molecule `Cc1cc(F)ccc1-c1nc(NS(=O)(=O)c2cccc(N3CC(C)(O)C3)n2)ccc1C(F)(F)F` [Example 217, N-(6-(4-fluoro-2-methylphenyl)-5-(trifluoromethyl)pyridin-2-yl)-6-(3-hydroxy-3-methylazetidin-1-yl)pyridine-2-sulfonamide], in assay [1], the Emax came out at 157% and the 50% effective concentration (EC50) was 308 nM. In addition, on delF508-CFTR, the “MTECC24 CFHBEC- Amax %” value is recorded as 66.3% and the EC50 turned out to be 38 nM.

Consider `Cc1ccccc1-c1nc(NS(=O)(=O)c2cccc(N3CCNC[C@@H]3C)n2)ccc1C(F)(F)F` [Example 170, (S)-6-(2-methylpiperazin-1-yl)-N-(6-(o-tolyl)-5-(trifluoromethyl)pyridin-2-yl)pyridine-2-sulfonamide Hydrochloride], for which, in assay [1], the Emax is 306% and the EC50 came to 2200 nM. At delF508-CFTR, the “MTECC24 CFHBEC- Amax %” value is 63.3% and the EC50 worked out at 174 nM.

On to `Cc1c(F)cccc1-c1nc(NS(=O)(=O)c2cccc(N3CCN(C4CC4)CC3)n2)ccc1Cl` [Example 141, N-(5-chloro-6-(3-fluoro-2-methylphenyl)pyridin-2-yl)-6-(4-cyclopropylpiperazin-1-yl)pyridine-2-sulfonamide], for which, in assay [1], the Emax is 938% and the EC50 came out at 2020 nM. Besides, at delF508-CFTR, the “MTECC24 CFHBEC- Amax %” value came out at 88.7% and the EC50 was 8.6 nM.

In the case of `Cc1c(C#N)cccc1-c1nc(NS(=O)(=O)c2cccc(N3CC(C)(O)C3)n2)ccc1Cl` [Example 309, N-(5-chloro-6-(3-cyano-2-methylphenyl)pyridin-2-yl)-6-(3-hydroxy-3-methylazetidin-1-yl)pyridine-2-sulfonamide], in assay [1], the Emax was found to be 194% and the EC50 was found to be 3790 nM. In addition, at delF508-CFTR, the “MTECC24 CFHBEC- Amax %” value came out at 75.6% and the 50% effective concentration (EC50) came out at 210 nM.

As for `Cc1ccc(F)cc1-c1nc(NS(=O)(=O)c2cccc(N3CC(C)(O)C3)n2)ccc1C(F)(F)F` [Example 219, N-(6-(5-fluoro-2-methylphenyl)-5-(trifluoromethyl)pyridin-2-yl)-6-(3-hydroxy-3-methylazetidin-1-yl)pyridine-2-sulfonamide], in assay [1], the Emax was 711% and the EC50 was 1600 nM. On delF508-CFTR, the “MTECC24 CFHBEC- Amax %” value is given as 119.0% and the EC50 came to 11.1 nM.

With `CN[C@H]1CCN(c2cccc(S(=O)(=O)Nc3ccc(C(F)(F)F)c(-c4ccccc4C)n3)n2)C1` [Example 122, (S)-6-(3-(methylamino)pyrrolidin-1-yl)-N-(6-(o-tolyl)-5-(trifluoromethyl)pyridin-2-yl)pyridine-2-sulfonamide Hydrochloride], in assay [1], the Emax came out at 385% and the concentration for a half-maximal effect (EC50) turned out to be 2690 nM. Moreover, on delF508-CFTR, the “MTECC24 CFHBEC- Amax %” value worked out at 81.8% and the EC50 stood at 27.1 nM.

In the case of `Cc1ccccc1-c1nc(NS(=O)(=O)c2cccc(N3CC(C)(O)C3)n2)ccc1Br` [Example 207, N-(5-bromo-6-(o-tolyl)pyridin-2-yl)-6-(3-hydroxy-3-methylazetidin-1-yl)pyridine-2-sulfonamide], in assay [1], the Emax was 503% and the EC50 was found to be 2270 nM. On delF508-CFTR, the “MTECC24 CFHBEC- Amax %” value turned out to be 78.0% and the EC50 was found to be 19.4 nM.

For the molecule `Cc1ccccc1-c1nc(NS(=O)(=O)c2cccc(N3CCN4C[C@@H](F)C[C@@H]4C3)n2)ccc1C(F)(F)F` [Example 138, 6-((7S,8aR)-7-fluorohexahydropyrrolo[1,2-a]pyrazin-2(1H)-yl)-N-(6-(o-tolyl)-5-(trifluoromethyl)pyridin-2-yl)pyridine-2-sulfonamide], in assay [1], the Emax was 636% and the 50% effective concentration (EC50) was 681 nM. On delF508-CFTR, the “MTECC24 CFHBEC- Amax %” value is 108.4% and the EC50 was 15.6 nM.

Take `COc1ccc(Cl)c(-c2nc(NS(=O)(=O)c3cccc(N4CCNCC4)n3)ccc2Cl)c1` [Example 158, N-(5-chloro-6-(2-chloro-5-methoxyphenyl)pyridin-2-yl)-6-(piperazin-1-yl)pyridine-2-sulfonamide hydrochloride]: in assay [1], the Emax is 230% and the EC50 worked out at 4190 nM. Besides, on delF508-CFTR, the “MTECC24 CFHBEC- Amax %” value turned out to be 76.6% and the EC50 came to 93.5 nM.

The values are drawn from patent US11066369B2, “N-(pyridin-2-yl)pyridine-sulfonamide derivatives and their use in the treatment of disease” (Novartis AG, priority 2016, dated 2021).
